Drawing on ChEMBL document CHEMBL3045172, “Assessment of resistance risk in Spodoptera exigua (Hübner) (Lepidoptera: Noctuidae) to chlorantraniliprole” (2011), this text covers LC50 and RatioLC50 for one compound.

≈ marks a conversion by molar mass, not a printed value.

Format in all cases: functional
Assay [1] has as its system Spodoptera exigua. As to the kind of experiment: Insecticidal activity against Spodoptera exigua F0 neonate larvae assessed as mortality at 27 +/- 1 degC, 60 to 70% RH measured after 72 hr. To be noted: F0, 72 h.
In assay [2] the test system is Spodoptera exigua. Put plainly: Insecticidal activity against susceptible strain Spodoptera exigua SS neonate larvae assessed as mortality at 27 +/- 1 degC, 60 to 70% RH measured after 72 hr.
Assay [3] concerns Spodoptera exigua. As to the kind of experiment: Resistance factor, LC50 for Spodoptera exigua F22 neonate larvae to LC50 for Spodoptera exigua F0 neonate larvae.
Assay [4] deals with Spodoptera exigua. As to the kind of experiment: Resistance factor, LC50 for Spodoptera exigua F11 neonate larvae to LC50 for Spodoptera exigua F0 neonate larvae.
In assay [5] the test system is Spodoptera exigua. As to the kind of experiment: Resistance factor, LC50 for Spodoptera exigua F22 neonate larvae to LC50 for Spodoptera exigua SS neonate larvae.
For assay [6], the system named is Spodoptera exigua. As to the kind of experiment: Resistance factor, LC50 for Spodoptera exigua F11 neonate larvae to LC50 for Spodoptera exigua SS neonate larvae.
Assay [7] deals with Spodoptera exigua. As to the kind of experiment: Resistance factor, LC50 for Spodoptera exigua F0 neonate larvae to LC50 for Spodoptera exigua SS neonate larvae.
The subject of assay [8] is Spodoptera exigua. As to the kind of experiment: Insecticidal activity against Spodoptera exigua F22 neonate larvae assessed as mortality at 27 +/- 1 degC, 60 to 70% RH measured after 72 hr. To be noted: F22, 72 h.
For assay [9], the system named is Spodoptera exigua. As to the kind of experiment: Insecticidal activity against Spodoptera exigua F11 neonate larvae assessed as mortality at 27 +/- 1 degC, 60 to 70% RH measured after 72 hr. To be noted: F11, 72 h.

As for `CNC(=O)c1cc(Cl)cc(C)c1NC(=O)c1cc(Br)nn1-c1ncccc1Cl` [CHLORANTRANILIPROLE], the LC50 with Spodoptera exigua [1] amounted to 0.157 µg/mL (≈ 0.325 µM); in the assay with Spodoptera exigua [2], 0.0137 µg/mL (≈ 0.0284 µM); in the assay with Spodoptera exigua [8], 1.88 µg/mL (≈ 3.9 µM); in the assay on Spodoptera exigua [9] it was 0.78 µg/mL (≈ 1.61 µM). In addition, the RatioLC50 in the assay on Spodoptera exigua [3] was determined as 12; in the assay on Spodoptera exigua [4], 5; in the assay with Spodoptera exigua [5], 137.4; with Spodoptera exigua [6] it was 56.9; in the assay on Spodoptera exigua [7], 11.4.

Broadly, the LC50 is the concentration that kills 50% of the test population.
